Data from US8288372B2, “Method for treating headache with loxapine” (Alexza Pharmaceuticals, Inc., priority 2002, dated 2012).
Like-named read-outs stand apart in the source and are kept apart here. Marks after values point to notes of the source that are not given here.

Tests used:
Male mice = experiment: Mouse writhing test (acetic acid 0.5% i.p.); details: for Effect on the number of writhes induced by acetic acid: five doses i.p.; for Dose from which the number of writhes was significantly decreased: Mann Whitney U test vs vehicle
Experimental: Male mice weighing 23-28 g were used in this test. Mice were injected with acetic acid (0.5% i.p.). This treatment induces a recognizable writhing response in control animals. The number of writhes is counted for 10 minutes beginning 5 minutes after injection of acetic acid. Ten mice were studied per group. The test was performed blind. Loxapine and amoxapine (dispersed in 0.2% hydroxypropylmethylcellulose, then dissolved in saline) were evaluated at five doses, administered i.p. 30 minutes before acetic acid, and compared with a vehicle control (0.2% hydroxypropylmethylcellulose in saline) group. Dosage rates for loxapine were 0.125, 0.25, 0.5, 1 and 2 mg/kg. Dosage rates for amoxapine were 1, 2, 4, 8 and 16 mg/kg. […] The data were analyzed by comparing the treated groups with the vehicle control using Mann Whitney U tests.

[1] = cited from earlier work
animal model = details: chronic administration of amoxapine alone; cited from earlier work
[2] = Toxicokinetic analysis of loxapine plasma concentration after aerosol inhalation; format: in vivo, beagle dogs
Experimental: On the first day of the repeat dose (5 day) portion of the study, plasma samples were collected for toxicokinetic analysis prior to dosing, 2 minutes after the onset of dosing, immediately after dosing, 20 minutes and 1, 3, 9 and 24 hours post dosing. Samples were stored at −80° C. until loxapine plasma concentration analysis. Loxapine plasma concentration can be measured using analytical methods well known in the art, such as LC/MS, LC/MS/MS, and/or GC/MS. […] The rate of rise in loxapine plasma concentration is found to average at least 70 ng/mL/minute at the 2 mg/kg dose level over the first 2 minutes of dosing, and 20 ng/mL/minute at the 2 mg/kg dose level over the first 10 minutes of dosing. The rate of rise in loxapine plasma concentration is found to average at least 7 ng/mL/minute at the 0.2 mg/kg dose level over the first 2 minutes of dosing, and 2 ng/mL/minute at the 0.2 mg/kg dose level over the first 10 minutes of dosing. Therapeutic plasma levels of approximately at least 0.5 ng/mL, 1 ng/mL, 2 ng/mL, 4 ng/mL, 8 ng/mL, or even 15 ng/mL are obtained within 10 minutes, 5 minutes, and even within 2 minutes at both dose levels.

[3] = system: subjects with a history of moderate to severe migraine headache; experiment: Phase II clinical trial of loxapine for the treatment of acute migraine attacks; format: in vivo, human
Excerpt: The study methodology is a double-blind, randomized, placebo-controlled dose-ranging trial. Healthy male and female subjects 18 to 65 years of age, inclusive, with a history of moderate to severe migraine headache by self-report (migraine with or without aura) with average frequency of 1-6 attacks per month during the past 3 months are recruited to participate in the study. Those subjects meeting entry criteria are enrolled and randomized to receive one of the following treatments: placebo, loxapine rapid delivery system ˜1.25 mg, loxapine rapid delivery system ˜2.5 mg, loxapine rapid delivery system ˜5 mg, loxapine rapid delivery system ˜10 mg. Higher loxapine doses may also be tested if found safe in a Phase I clinical trial. The loxapine rapid delivery system is a means of delivering loxapine to a migraine patient such that maximum plasma drug concentrations are obtained within 1 hour, 30 minutes, 15 minutes, 10 minutes, 5 minutes, or even 2 minutes or less. The condensation aerosol delivery system described above with respect to a Phase I clinical trial is one such system. Other rapid delivery systems include various durations of intravenous infusions or injections.
Immediately prior to receiving the treatment to which the patient has been randomized, the patient rates their severity of headache and nausea on a 4-point scale (0—absent, 1—mild, 2—moderate, 3—severe) and photophobic and phonophobia on a 2-point scale (Does light make your headache worse? 0—No, 1—Yes; Does noise make your headache worse? O—No, 1—Yes). Alternatively, an 11-point visual-analogue scale (0—none to 10—maximally severe) or other appropriate scale can be used. Subjects are asked to repeat these ratings at timepoints of 15 and 30 minutes following treatment, and also at 1, 2, 4, 8, 12 and 24 hours post treatment. Subjects are further asked for their global assessment of treatment efficacy (1—very poor to 5—very good) at 120 minutes and 24 hours post treatment. Concomitant medications, if any, are also recorded.

[4] = system: person with migraine headache; experiment: Clinical use of loxapine tablet for an acute migraine attack; format: in vivo, human; details: 25 mg tablet by mouth
Experimental: A person in generally good health notes onset of moderate pain localizing to the right side of their head over approximately 10 minutes while at home. Over the next 10 minutes, the pain becomes more severe, characterized by throbbing. The person recognizes this as a migraine headache, and also knows that for their such headaches, when untreated, tend to persist for at least a full day with nausea accompanying the headache pain and with the pain so severe as to render sleeping difficult or impossible. The person turns down the lights in their living room to avoid the pain caused by bright light entering their eyes, and turns off the radio, because noise from the radio was worsening their headache pain. They take a 25 mg loxapine tablet by mouth with a glass of water. Over the next 15 minutes, the headache pain begins to […], and the person's stomach is mildly upset. […] Their stomach no longer bothers them. […] Light and sound are no longer bothersome. They eat a normal meal without stomach upset.

Beagle Dog = details: in vivo
[5] = 1 mg/kg i.p. 30 minutes before acetic acid, first or second experiment
[6] = 2 mg/kg i.p. 30 minutes before acetic acid, first or second experiment

Clc1ccc2c(c1)C(N1CCNCC1)=Nc1ccccc1O2 [Amoxapine, 2-chloro-11(1-piperazinyl)dibenz(b,f) (1,4) oxazepine]
Reduction in acetic acid writhing, percentage of control vehicle pretreatment (Male mice; [5]): −23% NS
Reduction in acetic acid writhing, percentage of control vehicle pretreatment (Male mice; [6]): −39% *
Reduction in acetic acid writhing, percentage of control vehicle pretreatment (Male mice; 4 mg/kg i.p. 30 minutes before acetic acid, first or second experiment): −71% ***
Reduction in acetic acid writhing, percentage of control vehicle pretreatment (Male mice; 8 mg/kg i.p. 30 minutes before acetic acid, first or second experiment): −93% ***
Reduction in acetic acid writhing, percentage of control vehicle pretreatment (Male mice; 16 mg/kg i.p. 30 minutes before acetic acid): −100% ***
Effect on the number of writhes induced by acetic acid (Male mice): dose-dependently decreased the number of writhes
Dose from which a clear / marked effect on writhing was observed (Male mice; i.p.): ≥ 4 mg/kg
Dose from which the number of writhes was significantly decreased (Male mice; i.p.): ≥ 2 mg/kg
Dose from which sedation was observed (Male mice; male, mouse, in vivo, ip): ≥ 2 mg/kg
Cmax ([1]; lowest used oral dose 50 mg (Jue et al. 1982)): ~30 ng/mL
Cmax ([1]; oral 100 mg (Calvo et al. 1985)): ~50 ng/mL
Tmax after oral administration ([1]; oral 100 mg): ~1.5 h
Blood levels after repeated dosing ([1]; repeated amoxapine dosing (Calvo et al. 1985)): 30 to 300 ng/mL
Latency of the tail-flick (animal model): no change

CN1CCN(C2=Nc3ccccc3Oc3ccc(Cl)cc32)CC1 [Loxapine, 2-chloro-11(4-methyl-1-piperazinyl)dibenz(b,f) (1,4) oxazepine]
Reduction in acetic acid writhing, percentage of control vehicle pretreatment (Male mice; 0.125 mg/kg i.p. 30 minutes before acetic acid): −57% **
Reduction in acetic acid writhing, percentage of control vehicle pretreatment (Male mice; 0.25 mg/kg i.p. 30 minutes before acetic acid): −90% ***
Reduction in acetic acid writhing, percentage of control vehicle pretreatment (Male mice; [5]): −100% ***
Reduction in acetic acid writhing, percentage of control vehicle pretreatment (Male mice; [6]): −99% ***
Effect on the number of writhes induced by acetic acid (Male mice): dose-dependently decreased the number of writhes
Dose from which a clear / marked effect on writhing was observed (Male mice; i.p.): ≥ 0.25 mg/kg
Dose from which the number of writhes was significantly decreased (Male mice; i.p.): ≥ 0.125 mg/kg
Dose from which sedation was observed (Male mice; i.p., mice): ≥ 0.25 mg/kg
Average rate of rise in loxapine plasma concentration ([2]; 0.2 mg/kg, first 2 minutes of dosing): at least 7 ng/mL/minute
Average rate of rise in loxapine plasma concentration ([2]; 0.2 mg/kg, first 10 minutes of dosing): ≥ 2 ng/mL/min
Average rate of rise in loxapine plasma concentration ([2]; 2 mg/kg, first 2 minutes of dosing): at least 70 ng/mL/minute
Average rate of rise in loxapine plasma concentration ([2]; 2 mg/kg, first 10 minutes of dosing): ≥ 20 ng/mL/min
Time to peak plasma concentration after end of drug inhalation ([2]; aerosol inhalation, first day of repeat dose): ≤ 2 min
Therapeutic effect of the drug ([3]; 5 mg and 10 mg, rapid delivery system, within 1 hour): strong therapeutic effect
Severity of headache in treated patients ([3]; 5 mg and 10 mg, at 1 hour, even 30 minutes, sometimes 15 minutes): markedly lower than prior to treatment
Headache relief versus placebo ([3]; 5 mg or 10 mg, at 1 hour, statistically significant at p<0.05 assuming large sample): marked advantage
Persistence of advantage versus placebo ([3]; 5 mg or 10 mg, unless placebo patients get rescue medication): persists at 2 hours, 4 hours, 8 hours, and even 24 hours
Signs of headache after brief nap [4]: without any signs of headache
Return of headache ([4]; no further medication): does not return over the next 72 hours
Headache pain ([4]; over the 1 hour following the first 15 minutes): diminishes slowly
Food consumption (Beagle Dog): roughly normal
Gross pathology findings at necropsy (Beagle Dog): No treatment related findings
Histopathological examination of gross lesions (Beagle Dog): no treatment related findings
Histopathological examination of larynx, trachea, mainstem bronchi, lungs including bronchi (Beagle Dog): No treatment related abnormalities
Signs of bronchoconstriction (wheezing, prolonged expiratory phase, cough) (Beagle Dog): no signs of bronchoconstriction
Cmax for loxapine only ([1]; oral dose of 25 mg, a different study): 10 to 12 ng/mL
Tmax after oral administration ([1]; oral, manufacturer studies (Lederle Laboratories)): 2 to 3 h
